Source: US20240000075A1, “FUNGICIDAL ARYL AMIDINES” (CORTEVA AGRISCIENCE LLC, priority 2020, published 2024)
Where two headings read alike, the source gives them in different places.

What was measured:
[1] = test system: Zymoseptoria tritici; experiment: Septoria leaf blotch of wheat, whole-plant fungicidal activity (SEPTTR); format: in vivo, Zymoseptoria tritici on wheat plants (variety 'Yuma'); conditions: read-out: % Disease Control Rating SEPTTR
Protocol: Example A: Evaluation of Fungicidal Activity: Septoria Leaf Blotch of Wheat (Zymoseptoria tritici; Bayer Code […]) Technical grades of materials were dissolved in acetone, which were then mixed with nine volumes of water (H2O) containing 110 ppm Triton X-100. The fungicide solutions were applied onto wheat seedlings using an automated booth sprayer to run-off. All sprayed plants were allowed to air dry prior to further handling. All fungicides were evaluated using the aforementioned method for their activity vs. all target diseases, unless stated otherwise. Wheat plants (variety 'Yuma') were grown from seed in a greenhouse in soil-less potting mix until the first leaf was fully emerged, with 7-10 seedlings per pot. These plants were inoculated with an aqueous spore suspension of Zymoseptoria tritici either 3 days prior to fungicide treatment (3 day curative; 3DC) or 1 day after fungicide treatment (1 day protectant; 1DP). After inoculation the plants were kept in 100% relative humidity for three days to permit spores to germinate and infect the leaf. The plants were then transferred to a greenhouse for disease to develop. When disease symptoms were fully expressed on the 1st leaves of untreated plants, infection levels were assessed on a scale of 0 to 100 percent disease severity. Percent disease control was calculated using the ratio of disease severity on treated plants relative to untreated plants.

[2] = test system: Puccinia triticina; experiment: Wheat brown rust, whole-plant fungicidal activity (PUCCRT); format: in vivo, Puccinia triticina on wheat plants (variety 'Yuma'); conditions: 24 h, 1DP (1 day protectant), read-out: % Disease Control Rating PUCCRT
Protocol: Technical grades of materials were dissolved in acetone, which were then mixed with nine volumes of water (H2O) containing 110 ppm Triton X-100. The fungicide solutions were applied onto wheat seedlings using an automated booth sprayer to run-off. All sprayed plants were allowed to air dry prior to further handling. All fungicides were evaluated using the aforementioned method for their activity vs. all target diseases, unless stated otherwise.
Example B: Evaluation of Fungicidal Activity: Wheat Brown Rust (Puccinia triticina; Synonym: Puccinia recondita f sp. tritici; Bayer Code PUCCRT)
Wheat plants (variety ‘Yuma’) were grown from seed in a greenhouse in soil-less potting mix until the first leaf was fully emerged, with 7-10 seedlings per pot. These plants were inoculated with an aqueous spore suspension of Puccinia triticina after fungicide treatments. After inoculation, the plants were kept in a dark dew room with 100% relative humidity overnight to permit spores to germinate and infect the leaf. The plants were then transferred to a greenhouse for disease to develop. Fungicide formulation, application and disease assessment followed the procedures as described in Example A.

[3] = test system: Phakopsora pachyrhizi; experiment: Asian soybean rust, whole-plant fungicidal activity (PHAKPA); format: in vivo; conditions: read-out: % Disease Control Rating PHAKPA
Protocol: Example C: Evaluation of Fungicidal Activity: Asian Soybean Rust (Phakopsora pachyrhizi; Bayer Code […]) Technical grades of materials were dissolved in acetone, which were then mixed with nine volumes of H2O containing 0.011% Tween-20. The fungicide solutions were applied onto soybean seedlings using an automated booth sprayer to run-off. All sprayed plants were allowed to air dry prior to further handling. Soybean plants (variety 'Williams 82') were grown in soil-less potting mix, with one plant per pot. Ten-day-old seedlings were used for testing. Plants were inoculated as described in Example A. Plants were incubated for 24 h in a dark dew room with 100% relative humidity then transferred to a growth room for disease to develop. Fungicide formulation and application were made as described in Example A. When disease symptoms were fully expressed, disease severity was assessed on the sprayed leaves on a scale of 0 to 100 percent. Percent disease control was calculated using the ratio of disease severity on treated plants relative to untreated plants.

[4] = test system: Rhynchosporium commune; experiment: Leaf blotch of barley, whole-plant fungicidal activity (RHYNSE); format: in vivo; conditions: 24 h, 1DP (1 day protectant), read-out: % Disease Control Rating RHYNSE
Protocol: Technical grades of materials were dissolved in acetone, which were then mixed with nine volumes of water (H2O) containing 110 ppm Triton X-100. The fungicide solutions were applied onto wheat seedlings using an automated booth sprayer to run-off. All sprayed plants were allowed to air dry prior to further handling. All fungicides were evaluated using the aforementioned method for their activity vs. all target diseases, unless stated otherwise. Example D: Evaluation of Fungicidal Activity: Leaf Blotch of Barley (Rhynchosporium commune; Bayer Code […]) Barley plants (variety 'Harrington') were grown from seed in a greenhouse in soil-less potting mix until the first leaf was fully emerged, with 7-10 seedlings per pot. These plants were inoculated with an aqueous spore suspension of Rhynchosporium commune after fungicide treatments. After inoculation, the plants were kept in a dark dew room with 100% relative humidity for two days to permit spores to germinate and infect the leaf. The plants were then transferred to a greenhouse for disease to develop. Fungicide formulation and application were made as described in Example A. Disease assessment was conducted as described in Example A.

| SMILES | pest or weed control at 200 ppm ([1]; 24 h, 1DP (1 day protectant)) | pest or weed control at 200 ppm ([1]; 72 h, 3DC (3 day curative)) | pest or weed control at 200 ppm [2] | pest or weed control at 200 ppm ([3]; 24 h, 1DP (1 day protectant)) | pest or weed control at 200 ppm ([3]; 72 h, 3DC (3 day curative)) | pest or weed control at 200 ppm [4] |
| --- | --- | --- | --- | --- | --- | --- |
| CCN(C)/C=N/c1cc(C)c(C(=O)CC2CCC2)cc1C [Compound 27] | > 85% | 50 to 85% | > 85% | > 85% | > 85% | > 85% |
| CCN(C)/C=N/c1cc(C)c(C(=O)CCC(F)(F)C(F)(F)F)cc1C [Compound 29] | 50 to 85% | 50 to 85% | > 85% | > 85% | > 85% | > 85% |
| CCN(C)/C=N/c1cc(F)c(C(=O)CC2CCCC2)cc1C [Compound 30] | < 20% | < 20% | 50 to 85% | > 85% | > 85% | < 20% |
| CCN(C)/C=N/c1cc(C)c(C(=O)Cc2cccc(C(=O)OC)c2F)cc1C [Compound 31] | > 85% | < 20% | > 85% | < 20% | < 20% | 50 to 85% |
| CCN(C)/C=N/c1cc(C)c(C(=O)Cc2ccc(Cl)cc2F)cc1C [Compound 32] | > 85% | < 20% | > 85% | > 85% | > 85% | > 85% |
| CCN(C)/C=N/c1cc(C)c(C(=O)Cc2ccccc2OC(F)(F)F)cc1C [Compound 33] | > 85% | 50 to 85% | > 85% | > 85% | > 85% | > 85% |
| CCN(C)/C=N/c1cc(C)c(C(=O)Cc2cccc(OC(F)(F)F)c2)cc1C [Compound 34] | 50 to 85% | < 20% | > 85% | > 85% | > 85% | > 85% |
| CCN(C)/C=N/c1cc(OC)c(C(=O)CC2CCCC2)cc1C [Compound 35] | 50 to 85% | < 20% | > 85% | > 85% | > 85% | > 85% |
| CCN(C)/C=N/c1cc(C)c(C(=O)Cc2cccc(C(F)(F)F)c2F)cc1C [Compound 36] | – | < 20% | > 85% | > 85% | > 85% | 50 to 85% |
| CCN(C)/C=N/c1cc(OC)c(C(=O)Cc2c(F)cc(F)cc2F)cc1C [Compound 37] | > 85% | 50 to 85% | > 85% | > 85% | > 85% | < 20% |
| Cc1cc(C(=O)CC2CCCCC2)c(C)cc1/N=C/N(C)CC(F)(F)F [Compound 38] | < 20% | < 20% | < 20% | < 20% | < 20% | < 20% |
